Publication PMC12006963, “Application of Deuterium in an M1 Positive Allosteric Modulator Back-Up Program: The Discovery of VU6045422” (ACS Chemical Neuroscience, 2025)

What was measured:
Potassium Channel [KATP] = Potassium Channel [KATP] (Cricetus cricetus, UniProt Q09427); assay: Eurofins radioligand binding; set-up: species or system Hamster
Androgen (Testosterone) = Androgen (Testosterone) (Homo sapiens, UniProt P10275); assay: Eurofins radioligand binding
Glutamate, NMDA, Agonism = assay: Eurofins radioligand binding; set-up: species or system Rat
[1] = target: Platelet Activating Factor (PAF) (Homo sapiens, UniProt P25105); assay: Eurofins radioligand binding
hERG = hERG (Homo sapiens, UniProt Q12809); set-up: method as in PMID 39660766; settings: read-out: hERG manual patch clamp IC50; cited from earlier work
Chain of hERG (Q12809 whole entry): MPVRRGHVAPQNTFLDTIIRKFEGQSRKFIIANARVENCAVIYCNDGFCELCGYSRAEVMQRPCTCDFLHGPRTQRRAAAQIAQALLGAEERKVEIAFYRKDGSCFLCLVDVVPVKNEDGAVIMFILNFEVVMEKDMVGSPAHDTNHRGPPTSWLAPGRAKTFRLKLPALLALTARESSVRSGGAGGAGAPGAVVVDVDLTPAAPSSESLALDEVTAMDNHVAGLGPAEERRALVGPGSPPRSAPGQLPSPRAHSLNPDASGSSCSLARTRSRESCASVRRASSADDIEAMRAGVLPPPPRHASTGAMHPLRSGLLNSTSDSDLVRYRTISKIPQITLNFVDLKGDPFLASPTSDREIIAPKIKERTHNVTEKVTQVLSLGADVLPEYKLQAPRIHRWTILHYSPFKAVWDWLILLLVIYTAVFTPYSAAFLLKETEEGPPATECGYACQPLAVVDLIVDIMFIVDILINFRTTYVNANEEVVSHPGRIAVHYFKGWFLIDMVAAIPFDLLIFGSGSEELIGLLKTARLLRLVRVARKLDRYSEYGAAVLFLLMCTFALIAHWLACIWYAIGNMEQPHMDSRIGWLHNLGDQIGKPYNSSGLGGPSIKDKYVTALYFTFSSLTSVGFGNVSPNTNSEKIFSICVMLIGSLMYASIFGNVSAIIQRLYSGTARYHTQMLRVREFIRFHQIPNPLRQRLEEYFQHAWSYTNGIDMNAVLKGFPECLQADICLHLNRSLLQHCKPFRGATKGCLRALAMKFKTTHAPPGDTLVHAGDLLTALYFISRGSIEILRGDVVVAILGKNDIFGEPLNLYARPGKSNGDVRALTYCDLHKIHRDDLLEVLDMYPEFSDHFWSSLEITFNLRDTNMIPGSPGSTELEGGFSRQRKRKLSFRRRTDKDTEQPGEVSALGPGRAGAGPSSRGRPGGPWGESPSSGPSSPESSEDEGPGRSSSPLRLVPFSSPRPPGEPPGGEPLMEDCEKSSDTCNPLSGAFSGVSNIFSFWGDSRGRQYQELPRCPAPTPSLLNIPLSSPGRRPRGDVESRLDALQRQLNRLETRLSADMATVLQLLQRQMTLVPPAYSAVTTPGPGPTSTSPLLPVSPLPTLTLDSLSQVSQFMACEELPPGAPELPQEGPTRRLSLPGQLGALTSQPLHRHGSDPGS

Chain of Platelet Activating Factor (PAF) (P25105 whole entry): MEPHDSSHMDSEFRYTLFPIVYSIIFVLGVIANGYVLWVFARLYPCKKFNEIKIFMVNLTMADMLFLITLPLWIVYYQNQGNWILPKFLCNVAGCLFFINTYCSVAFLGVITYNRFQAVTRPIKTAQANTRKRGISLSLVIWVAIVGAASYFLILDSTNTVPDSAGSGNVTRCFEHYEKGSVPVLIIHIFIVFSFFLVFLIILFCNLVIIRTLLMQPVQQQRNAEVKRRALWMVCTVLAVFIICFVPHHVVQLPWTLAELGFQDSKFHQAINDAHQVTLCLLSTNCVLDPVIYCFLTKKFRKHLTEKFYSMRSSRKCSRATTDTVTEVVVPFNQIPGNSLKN
Chain of Potassium Channel [KATP] (Q09427 whole entry): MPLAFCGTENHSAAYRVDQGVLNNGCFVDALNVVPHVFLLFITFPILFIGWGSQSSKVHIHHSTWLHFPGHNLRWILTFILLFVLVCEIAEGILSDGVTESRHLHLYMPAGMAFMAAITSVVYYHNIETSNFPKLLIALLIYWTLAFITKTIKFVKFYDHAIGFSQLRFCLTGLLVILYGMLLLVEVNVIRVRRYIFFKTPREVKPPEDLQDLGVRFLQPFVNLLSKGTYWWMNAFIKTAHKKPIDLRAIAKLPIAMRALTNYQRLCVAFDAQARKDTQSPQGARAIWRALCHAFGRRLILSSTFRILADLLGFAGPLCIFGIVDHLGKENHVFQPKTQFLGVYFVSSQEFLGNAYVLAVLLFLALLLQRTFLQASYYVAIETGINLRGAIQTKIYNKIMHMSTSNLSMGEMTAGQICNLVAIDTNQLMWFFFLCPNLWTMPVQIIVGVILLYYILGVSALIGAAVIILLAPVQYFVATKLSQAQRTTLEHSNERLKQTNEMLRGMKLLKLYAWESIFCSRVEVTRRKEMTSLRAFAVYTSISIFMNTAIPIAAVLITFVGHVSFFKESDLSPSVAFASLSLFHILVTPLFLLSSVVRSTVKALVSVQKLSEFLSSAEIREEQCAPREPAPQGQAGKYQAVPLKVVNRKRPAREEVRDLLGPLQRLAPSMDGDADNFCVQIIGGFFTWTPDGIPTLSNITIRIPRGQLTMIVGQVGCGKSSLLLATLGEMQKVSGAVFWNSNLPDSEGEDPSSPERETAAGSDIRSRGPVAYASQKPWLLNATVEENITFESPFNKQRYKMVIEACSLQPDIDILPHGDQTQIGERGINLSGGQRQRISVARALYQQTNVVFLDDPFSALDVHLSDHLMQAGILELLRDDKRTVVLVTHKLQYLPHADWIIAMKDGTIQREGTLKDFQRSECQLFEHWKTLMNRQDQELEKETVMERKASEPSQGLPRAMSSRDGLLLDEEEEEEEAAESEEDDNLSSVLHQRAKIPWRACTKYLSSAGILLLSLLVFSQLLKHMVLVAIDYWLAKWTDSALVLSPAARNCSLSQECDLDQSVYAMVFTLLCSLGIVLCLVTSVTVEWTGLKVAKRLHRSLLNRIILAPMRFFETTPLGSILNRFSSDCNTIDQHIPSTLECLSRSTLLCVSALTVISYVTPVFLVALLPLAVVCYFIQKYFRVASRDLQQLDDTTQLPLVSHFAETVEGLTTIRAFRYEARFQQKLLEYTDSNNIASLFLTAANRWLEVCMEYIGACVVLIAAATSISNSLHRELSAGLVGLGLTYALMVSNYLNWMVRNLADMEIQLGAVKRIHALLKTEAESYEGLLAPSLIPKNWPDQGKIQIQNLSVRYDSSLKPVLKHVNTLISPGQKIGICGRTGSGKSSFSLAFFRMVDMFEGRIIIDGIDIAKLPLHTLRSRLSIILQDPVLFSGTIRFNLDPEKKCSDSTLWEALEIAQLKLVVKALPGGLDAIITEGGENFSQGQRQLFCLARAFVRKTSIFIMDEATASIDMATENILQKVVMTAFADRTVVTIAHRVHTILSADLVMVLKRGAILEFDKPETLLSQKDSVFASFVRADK
Chain of Androgen (Testosterone) (P10275 whole entry): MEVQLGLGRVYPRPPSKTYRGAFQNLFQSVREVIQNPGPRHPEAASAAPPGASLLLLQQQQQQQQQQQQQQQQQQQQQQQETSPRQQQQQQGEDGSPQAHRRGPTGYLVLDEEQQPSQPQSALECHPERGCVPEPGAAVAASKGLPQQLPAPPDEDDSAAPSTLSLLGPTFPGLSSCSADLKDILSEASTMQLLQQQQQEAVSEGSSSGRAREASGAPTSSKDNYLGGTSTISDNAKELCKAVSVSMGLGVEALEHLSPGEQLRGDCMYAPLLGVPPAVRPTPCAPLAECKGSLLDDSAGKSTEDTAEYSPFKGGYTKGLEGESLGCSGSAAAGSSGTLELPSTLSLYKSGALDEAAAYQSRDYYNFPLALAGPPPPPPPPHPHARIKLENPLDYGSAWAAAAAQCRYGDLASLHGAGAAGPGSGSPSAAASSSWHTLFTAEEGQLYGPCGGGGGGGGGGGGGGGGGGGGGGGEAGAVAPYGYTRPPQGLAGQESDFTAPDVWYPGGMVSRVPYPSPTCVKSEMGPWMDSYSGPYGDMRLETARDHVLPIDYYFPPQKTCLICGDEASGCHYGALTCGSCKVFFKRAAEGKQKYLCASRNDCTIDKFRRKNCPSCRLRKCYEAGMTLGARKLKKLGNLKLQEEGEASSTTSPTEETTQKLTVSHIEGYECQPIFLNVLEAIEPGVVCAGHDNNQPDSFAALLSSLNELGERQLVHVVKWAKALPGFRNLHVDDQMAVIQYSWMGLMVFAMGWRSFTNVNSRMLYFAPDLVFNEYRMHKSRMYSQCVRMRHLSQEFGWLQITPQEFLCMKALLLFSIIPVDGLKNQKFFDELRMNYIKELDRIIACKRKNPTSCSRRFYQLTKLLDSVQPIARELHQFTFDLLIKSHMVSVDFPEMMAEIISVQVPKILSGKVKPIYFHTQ

Row | Structure (SMILES) | inhibition at 10 µM (Potassium Channel [KATP]) [%] | inhibition at 10 µM (Androgen (Testosterone)) [%] | % Inhibition at 10 µM (Glutamate, NMDA, Agonism) [%] | inhibition at 10 µM [1] [%] | IC50 (hERG) [µM]
1 | [2H]C1([2H])c2ncccc2C(=O)N1Cc1c(F)cc(-c2cccc3nn(C([2H])([2H])[2H])cc23)cc1F [compound 5] | 24 | 0 | 3 | 22 | –
2 | Cn1cc2c(-c3cc(F)c(CN4Cc5ncccc5C4=O)c(F)c3)cccc2n1 [compound 1] | – | – | – | – | 12
